One experiment relates to ARE. Nature of the experiment: FLuc2P-NLucP reporter assay, ARE-driven construct (pCI-4.37) in HEK293 cells. It is filed as cell-based. The following applies: 100 μM tBHQ, 24 h. As for the experimental part:
A FLuc2P-NLucP reporter assay and compound test was carried out as follows. This protocol measures bioluminescence derived from both FLuc2P and NLucP. A purified DNA construct pCI-4.37 was transfected into HEK293 cells. Sixteen hours after transfection, the cells were trypsinized and dispensed at 2,000 cells/20 μL/well into two 384-well tissue culture treated white/solid bottom plates (Greiner Bio-One North America). After adding tert-Butylhydroquinone (tBHQ) (Sigma) or control DMSO, the assay plates were incubated at 37° C. for 24 hours before adding the ONE-GLO or NANO-GLO detection reagents (Promega). Luminescence from luciferase activity was detected by using a VIEWLUX plate reader (PerkinElmer).

In experiment [1] the test system is cAMP-response element (CRE), adenylyl cyclase signaling. Kind of experiment: Compound test, 24-point titration, 4×CRE-driven FLuc-P2A-RLuc (pCI-6.24), 384-well. The following applies: PTC124 on FLuc, BTS on RLuc; relative to non-treated control. The class given is cell-based. On the procedure:
(§1) For the compound test, forskolin, PTC124 and BTS were prepared in a 24-point intraplate titration format and pre-diluted in the cell culture medium. Purified pCI-6.24 construct was transfected into GRIPTITE 293 MSR cells (Life Technologies). Sixteen hours post transfection, cells were trypsinized and then dispensed at 2,000 cells/15 μL/well in 384-well tissue culture treated white/solid bottom plates (Greiner Bio-One North America). Five μL of pre-diluted compound was transferred into assay plates, resulting in a final concentration ranging from 0.027 nM to 227 μM (forskolin) and 0.011 nM to 91 μM (PTC124 and BTS). The assay plates were incubated at 37° C. for 10 hours. FLuc and RLuc activities were then detected using DUAL-GLO reagent (Promega) and a VIEWLUX plate reader (PerkinElmer). Concentration-response curves and concentrations of half-maximal activity (EC50) for each compound were generated by using PRISM 4 software (GraphPad Software, Inc., La Jolla, Calif.).

For a further experiment, the system named is Parkin expression. The following applies: previously demonstrated, Bouman et al. 2011; cited from earlier work.
Experiment [2] concerns cAMP-response element (CRE) / CREB pathway. Nature of the experiment: LOPAC1280 qHTS, 4×CRE-driven FLuc-P2A-RLuc coincidence reporter (pCI-6.24) in GripTite 293 MSR cells. It is filed as cell-based. The following applies: for EC50: GripTite 293 MSR. On the procedure: This protocol measures bioluminescence derived from both FLuc and RLuc expression from a single assay. […] Sixteen hours after transfection, cells were trypsinized and then dispensed at 2,000 cells/20 μL/well in 384-well tissue culture treated white/solid bottom plates (Greiner Bio-One North America, Monroe, N.C.). The assay plates were incubated at 37° C. for 10 hours before adding the DUAL-GLO detection reagent (Promega). Luminescence from luciferase activity was detected by using a VIEWLUX plate reader (PerkinElmer, Waltham, Mass.).
Sixteen hours after transfection, cells were trypsinized and then dispensed at 500 cells/4 μL/well in 1,536-well tissue culture treated white/solid bottom plates (Greiner Bio-One North America) using a multidrop combi dispenser (Thermo Fisher Scientific). […] The assay plates were incubated at 37° C. for 10 hours before adding the DUAL-GLO detection reagent (3.5 μL+3.5 μL for each well) (Promega). Luminescence from luciferase activity was detected by using VIEWLUX (PerkinElmer). Each experimental plate contained forskolin as a positive control and DMSO as a negative control. Percentage activity was defined as the percentage signal relative to forskolin (100%) and DMSO (0%).

Another experiment has as its system SV40 promoter. Nature of the experiment: Compound test, SV40-driven FLuc-P2A-RLuc construct (pCI-6.20). The class given is cell-based. The following applies: pCI-6.20 construct. On the procedure: as §1
This experiment was repeated with cells transfected with the pCl-6.20 construct, which encoded FLuc-P2A-RLuc under the control of the SV40 […].

The test system of experiment [3] is PARK2 (Parkin) gene expression. Kind of experiment: Compound library screening, Parkin coincidence reporter cell line (FLuc-P2A-NLuc in PARK2 locus, BE(2)-M17 cells), 1536-well. It is filed as cell-based, human. The following applies: 24 h, titration. On the procedure: Construction of the Parkin coincidence reporter cell line by TALEN-mediated genome editing was carried out as follows. To generate a double-strand cleavage of the genomic DNA in the first codon of the PARK2 gene, constructs encoding transcription activator-like effector nuclease (TALEN) pairs (Right and Left) encoding components of the heterodimeric FokI nuclease were generated as described by Huang et al., Nature Biotechnology, 29: 699-700 (2011). The TALEN pair was designed to generate a double-strand cleavage at or near the first translation codon (ATG) within the Parkin gene. These constructs were transfected with Lipofectamine LTX (Life Technologies) into BE(2)-M17 cells (ATCC) […] along with a GFP-expressing marker plasmid and the coincidence reporter donor plasmid. After 48 hours of incubation in a tissue culture incubator, GFP-positive cells were sorted by FACS analysis and single clones were isolated and expanded. Once sufficient cell populations for each clone were achieved, analysis of correct genomic insertion of the Fluc-P2A-NLuc-PEST-PolyA coincidence reporter cassette that replaced the “ATGATAG” (SEQ ID NO: 362) sequence at the […] of the PARK2 gene exon 1 was ascertained by PCR and DNA sequencing of genomic DNA preparations (QIAGEN).
Compound library screening in 1536-well plates was carried out as follows. The Parkin coincidence reporter cell line was seeded at a density of 2000 cell/well into white, solid bottom, tissue-culture treated (Greiner Bio-One), 1536-well microplates in a total of 5 μL/well of culture medium. After a 16 hour incubation in a tissue-culture incubator, a compound pin tool (Wako) was used to transfer 20 nL of compound dissolved in DMSO for library plates to the assay plates. Compounds were present in either a 6 or 12-point titration in the library plates. DMSO vehicle, CCCP, and PTC-124 were also added to the designated control well. After a 24 hour incubation in the tissue culture incubator, the volume in each well of both plates was reduced to 2 μL with a microplate aspiration system (BioTek) and then 2 μL of Firefly Luciferase assay reagent (Promega) was added to every well each plate and luminescent signal from each well of each plate was measured on a VIEWLUX plate reader (PerkinElmer). Following the first read, 2 μL of NanoLuc assay reagent (Promega) including a proprietary firefly luciferase inhibitor (to quench the firefly reaction) was added to every well of each plate. After a second 15 minute incubation at room temperature, the NanoLuc signal from each well of each plate was measured on the VIEWLUX. Raw luminescent signal is expressed as a % of the positive control (10 uM CCCP for NanoLuc and 500 nM PTC-124 for FLuc).

The subject of the next experiment is p53 RE. Nature of the experiment: FLuc2P-NLucP reporter assay, p53 RE-driven construct (pCI-4.38) in HEK293 cells. It is filed as cell-based. The following applies: 10 μM etoposide, 24 h. On the procedure: The FLuc2P-NLucP reporter assay and compound test was carried out as follows. This protocol measures bioluminescence derived from both FLuc2P and NLucP. The purified DNA construct pCI-4.38 was transfected into HEK293 cells and the cells were cultured as described in Example 1. Sixteen hours after transfection, the cells were trypsinized and then dispensed at 2,000 cells/20 μL/well into two 384-well tissue culture treated white/solid bottom plates (Greiner Bio-One North America). After adding Etoposide (Sigma) or control DMSO, the assay plates were incubated at 37° C. for 24 hours before adding the ONE-GLO or NANO-GLO detection reagents (Promega). Luminescence from luciferase activity was detected by using a VIEWLUX plate reader (PerkinElmer).

The source of these data is US20180265934A1, “COINCIDENCE REPORTER GENE SYSTEM” (The United States of America, as represented by the …, priority 2013, published 2018).

Where two headings read alike, the source gives them in different places.

For `CC(C)(C)c1cc(O)ccc1O` [tBHQ, tert-Butylhydroquinone], the “reporter output vs DMSO” value with ARE is listed as “greater RLU values”.

For the compound `Cc1ccc(S(=O)(=O)NCc2ccccc2)cc1` [BTS], in experiment [1], the “effect on reporter activity by reporter stabilization” value was “increase the activity of the reporters”.

In the case of Tunicamycin, the “induction of Parkin expression” value with Parkin expression is “induce Parkin expression”.

As to `C=C[C@@]1(C)CC(=O)[C@]2(O)[C@@]3(C)[C@@H](O)CCC(C)(C)[C@@H]3[C@H](O)[C@H](OC(C)=O)[C@@]2(C)O1` [cpd 19, Forkskolin], the “Ratio F/R” value in experiment [2] (FLuc EC50 / RLuc EC50, Table 5) came to 0.90. Besides, the EC50 was 1.32 µM in experiment [2] (10 h, Table 5, coincident activators, FLuc readout, 10 h, ~4 nM to 57 μM, read-out: FLuc EC50); 1.47 µM in experiment [2] (10 h, Table 5, coincident activators, RLuc readout, 10 h, ~4 nM to 57 μM, read-out: RLuc EC50); 0.86 µM in experiment [2] (FLuc readout, 1536 interplate format, read-out: Intraplate Forskolin Control Mean); 0.88 µM in experiment [2] (RLuc readout, 1536 interplate format, read-out: Intraplate Forskolin Control Mean). Moreover, in the experiment on SV40 promoter, the “activity where reporter expression was driven by the SV40 promoter” value was “inactive”.

Turning to `O=C(O)c1cccc(-c2noc(-c3ccccc3F)n2)c1` [PTC124], the “effect on reporter activity by reporter stabilization” value in experiment [1] is “increase the activity of the reporters”. In addition, in experiment [3], the “coincident reporter response (FLuc and NLuc)” value is listed as “do not elicit a coincident reporter response”; the “signal obtained through reporter interference” value is on record as “FLuc signal is obtained through reporter interference”.

In the case of `N#CC(C#N)=NNc1cccc(Cl)c1` [carbonyl cyanide m-chlorophenyl hydrazone], the “induction of Parkin expression” value in the experiment on Parkin expression is given as “induce Parkin expression”.

Take `COc1cc([C@@H]2c3cc4c(cc3[C@@H](O[C@@H]3O[C@@H]5CO[C@@H](C)O[C@H]5[C@H](O)[C@H]3O)[C@H]3COC(=O)[C@H]23)OCO4)cc(OC)c1O` [etoposide, Etoposide]: the “reporter output vs DMSO” value with p53 RE is given as “greater RLU values”.
